SMILES strings stand for the structures.

Holding throughout (type): binding
One assay relates to Rolipram. To be noted: 10 μM; rat.
The next assay addresses Dopamine D2s (Homo sapiens, UniProt P14416). To be noted: for % Inhibition: 10 μM.
For a further assay, the target named is Potassium Channel (KATP) (Cricetus cricetus, UniProt Q09427). Particulars: hamster; for % Inhibition: 10 μM.
Another assay deals with Adenosine A2A (Homo sapiens, UniProt P29274). To be noted: for % Inhibition: 10 μM.
A further assay concerns the target T1, Muscarinic M2 (Homo sapiens, UniProt P08172).
T1 sequence (P08172 1-466): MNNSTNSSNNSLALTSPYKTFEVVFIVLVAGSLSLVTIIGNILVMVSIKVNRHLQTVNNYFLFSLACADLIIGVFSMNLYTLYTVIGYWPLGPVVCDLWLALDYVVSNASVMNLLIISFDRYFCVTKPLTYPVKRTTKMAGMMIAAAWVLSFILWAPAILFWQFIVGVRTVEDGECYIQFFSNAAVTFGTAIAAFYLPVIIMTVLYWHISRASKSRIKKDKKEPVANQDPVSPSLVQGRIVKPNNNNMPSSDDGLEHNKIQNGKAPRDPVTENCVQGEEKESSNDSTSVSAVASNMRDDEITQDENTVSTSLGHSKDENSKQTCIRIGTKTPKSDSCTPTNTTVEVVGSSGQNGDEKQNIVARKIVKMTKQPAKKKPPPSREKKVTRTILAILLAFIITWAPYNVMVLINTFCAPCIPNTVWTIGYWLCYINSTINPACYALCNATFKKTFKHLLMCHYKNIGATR
To be noted: for % Inhibition: 10 μM.

For another assay, the target named is Sigma σ1 (Homo sapiens, UniProt Q99720). To be noted: for % Inhibition: 10 μM.
Sequence of Sigma σ1 (Q99720 whole entry): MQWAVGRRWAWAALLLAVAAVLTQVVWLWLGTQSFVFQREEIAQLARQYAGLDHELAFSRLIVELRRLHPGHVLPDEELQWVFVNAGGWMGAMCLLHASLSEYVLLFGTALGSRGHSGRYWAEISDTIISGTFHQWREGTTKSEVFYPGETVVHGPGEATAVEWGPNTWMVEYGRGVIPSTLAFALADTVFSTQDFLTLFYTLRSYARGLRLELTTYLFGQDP
The test system of the next assay is Phorbol Ester. To be noted: 10 μM; mouse.
The target in the next assay is Prostanoid EP4 (Homo sapiens, UniProt P35408). Particulars: for % Inhibition: 10 μM.
Another assay deals with Opiate μ(OP3, MOP) (Homo sapiens, UniProt P35372). Particulars: for % Inhibition: 10 μM.
Assay [1] concerns the target Nicotinic Acetylcholine a1, Bungarotoxin (Homo sapiens, UniProt P02708+P07510+Q07001). Particulars: for % Inhibition: 10 μM, human.
Assay [2] deals with Seritonin (5-Hydroxytryptamine) 5-HT2B (Homo sapiens, UniProt P41595). To be noted: for % Inhibition: 10 μM.
For assay [3], the system named is Glutamate, NMDA, Phencyclidine. To be noted: 10 μM; rat.
The next assay concerns Sodium Channel, Site 2. Particulars: 10 μM; rat.
The next assay deals with T2, Adrenergic α1B (Rattus norvegicus, UniProt P15823).
T2 sequence (P15823 1-515): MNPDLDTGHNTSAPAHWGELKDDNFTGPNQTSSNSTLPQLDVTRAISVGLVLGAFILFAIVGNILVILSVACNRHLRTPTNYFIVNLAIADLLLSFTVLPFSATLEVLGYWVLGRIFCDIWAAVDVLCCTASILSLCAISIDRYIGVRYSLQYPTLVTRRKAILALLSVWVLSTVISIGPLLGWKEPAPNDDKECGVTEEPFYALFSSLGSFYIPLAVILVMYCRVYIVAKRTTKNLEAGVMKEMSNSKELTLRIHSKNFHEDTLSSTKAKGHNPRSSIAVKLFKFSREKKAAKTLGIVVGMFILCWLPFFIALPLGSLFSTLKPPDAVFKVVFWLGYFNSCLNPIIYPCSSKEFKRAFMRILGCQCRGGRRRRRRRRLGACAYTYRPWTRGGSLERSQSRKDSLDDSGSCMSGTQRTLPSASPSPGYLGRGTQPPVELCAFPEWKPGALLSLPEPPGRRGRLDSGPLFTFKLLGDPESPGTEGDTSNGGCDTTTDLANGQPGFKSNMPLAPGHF
To be noted: for % Inhibition: 10 μM.

The next assay addresses Adrenergic β1 (Homo sapiens, UniProt P08588). Particulars: for % Inhibition: 10 μM.
Another assay deals with Histamine, H1 (Homo sapiens, UniProt P35367). Particulars: for % Inhibition: 10 μM.
Sequence of Histamine, H1 (P35367 whole entry): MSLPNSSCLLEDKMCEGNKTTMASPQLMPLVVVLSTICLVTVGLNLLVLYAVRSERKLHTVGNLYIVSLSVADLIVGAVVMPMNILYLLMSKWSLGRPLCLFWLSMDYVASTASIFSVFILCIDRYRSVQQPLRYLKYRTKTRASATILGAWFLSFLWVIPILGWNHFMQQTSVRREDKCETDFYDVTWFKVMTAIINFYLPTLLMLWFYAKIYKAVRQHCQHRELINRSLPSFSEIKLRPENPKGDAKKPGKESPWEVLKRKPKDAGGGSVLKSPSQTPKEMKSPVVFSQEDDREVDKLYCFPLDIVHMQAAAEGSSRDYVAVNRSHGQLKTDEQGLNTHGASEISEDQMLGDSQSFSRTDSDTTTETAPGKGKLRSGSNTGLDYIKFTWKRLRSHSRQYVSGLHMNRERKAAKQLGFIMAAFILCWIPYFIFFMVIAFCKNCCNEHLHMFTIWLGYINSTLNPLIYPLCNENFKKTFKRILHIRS
The next assay deals with T3, Adrenergic α1A (Rattus norvegicus, UniProt P43140).
T3 sequence (P43140 1-466): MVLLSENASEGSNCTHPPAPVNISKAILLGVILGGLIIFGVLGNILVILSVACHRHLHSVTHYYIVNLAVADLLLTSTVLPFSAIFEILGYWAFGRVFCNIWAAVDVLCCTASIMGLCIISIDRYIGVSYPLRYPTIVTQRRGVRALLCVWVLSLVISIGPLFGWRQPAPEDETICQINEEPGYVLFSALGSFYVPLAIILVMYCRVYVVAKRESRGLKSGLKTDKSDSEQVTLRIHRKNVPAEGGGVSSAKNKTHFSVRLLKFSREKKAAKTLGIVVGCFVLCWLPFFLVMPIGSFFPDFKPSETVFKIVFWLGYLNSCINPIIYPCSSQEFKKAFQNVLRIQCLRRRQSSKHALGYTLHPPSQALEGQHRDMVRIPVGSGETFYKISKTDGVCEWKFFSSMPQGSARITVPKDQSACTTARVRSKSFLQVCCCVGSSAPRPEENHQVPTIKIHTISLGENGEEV
To be noted: for % Inhibition: 10 μM.

Assay [4] relates to Calcium Channel L-type, Dihydropyridine. Particulars: 10 μM; rat.
The target in another assay is Cannabinoid CB1 (Homo sapiens, UniProt P21554). To be noted: for % Inhibition: 10 μM.
Sequence of Cannabinoid CB1 (P21554 whole entry): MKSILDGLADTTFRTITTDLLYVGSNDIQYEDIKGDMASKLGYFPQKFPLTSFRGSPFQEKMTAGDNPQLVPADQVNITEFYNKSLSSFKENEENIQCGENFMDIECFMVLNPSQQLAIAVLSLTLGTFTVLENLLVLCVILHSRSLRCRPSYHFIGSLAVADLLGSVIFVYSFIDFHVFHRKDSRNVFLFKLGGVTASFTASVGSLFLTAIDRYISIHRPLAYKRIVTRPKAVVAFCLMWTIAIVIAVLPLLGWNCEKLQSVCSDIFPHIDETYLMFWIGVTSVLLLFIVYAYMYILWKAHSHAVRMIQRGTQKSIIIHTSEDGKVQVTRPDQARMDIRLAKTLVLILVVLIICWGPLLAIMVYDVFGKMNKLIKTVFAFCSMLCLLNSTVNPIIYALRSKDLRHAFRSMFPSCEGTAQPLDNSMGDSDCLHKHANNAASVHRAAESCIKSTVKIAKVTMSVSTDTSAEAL
Another assay concerns the target Muscarinic M3 (Homo sapiens, UniProt P20309). To be noted: for % Inhibition: 10 μM.
A further assay addresses Adrenergic β2 (Homo sapiens, UniProt P07550). Particulars: for % Inhibition: 10 μM.

Sequence of Nicotinic Acetylcholine a1, Bungarotoxin (P07510 23-517): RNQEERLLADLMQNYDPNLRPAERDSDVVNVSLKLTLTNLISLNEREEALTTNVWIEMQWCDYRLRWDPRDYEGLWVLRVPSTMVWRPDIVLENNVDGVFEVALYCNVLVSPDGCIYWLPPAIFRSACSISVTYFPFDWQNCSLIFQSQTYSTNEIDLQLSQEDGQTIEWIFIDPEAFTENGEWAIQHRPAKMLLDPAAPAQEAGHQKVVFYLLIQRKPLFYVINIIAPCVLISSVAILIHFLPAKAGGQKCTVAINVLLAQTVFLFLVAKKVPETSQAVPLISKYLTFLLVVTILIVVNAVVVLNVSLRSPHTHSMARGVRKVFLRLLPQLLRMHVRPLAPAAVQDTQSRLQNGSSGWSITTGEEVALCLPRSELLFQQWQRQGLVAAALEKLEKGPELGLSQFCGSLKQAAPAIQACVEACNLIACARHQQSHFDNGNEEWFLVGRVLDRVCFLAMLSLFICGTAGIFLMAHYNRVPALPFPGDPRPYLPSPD
Sequence of Nicotinic Acetylcholine a1, Bungarotoxin (P02708 21-457): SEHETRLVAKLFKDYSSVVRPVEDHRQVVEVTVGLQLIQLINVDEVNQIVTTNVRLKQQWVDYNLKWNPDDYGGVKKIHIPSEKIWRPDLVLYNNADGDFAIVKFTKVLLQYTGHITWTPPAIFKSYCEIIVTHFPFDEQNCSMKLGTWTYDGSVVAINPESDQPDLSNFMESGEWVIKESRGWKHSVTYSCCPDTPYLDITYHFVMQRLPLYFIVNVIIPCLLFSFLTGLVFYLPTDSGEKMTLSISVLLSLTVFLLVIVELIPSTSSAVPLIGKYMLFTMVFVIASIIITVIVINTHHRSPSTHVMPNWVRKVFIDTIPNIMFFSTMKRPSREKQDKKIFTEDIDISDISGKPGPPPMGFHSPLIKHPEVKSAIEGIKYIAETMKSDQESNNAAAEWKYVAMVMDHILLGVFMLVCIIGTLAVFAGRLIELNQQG
Sequence of Nicotinic Acetylcholine a1, Bungarotoxin (Q07001 22-517): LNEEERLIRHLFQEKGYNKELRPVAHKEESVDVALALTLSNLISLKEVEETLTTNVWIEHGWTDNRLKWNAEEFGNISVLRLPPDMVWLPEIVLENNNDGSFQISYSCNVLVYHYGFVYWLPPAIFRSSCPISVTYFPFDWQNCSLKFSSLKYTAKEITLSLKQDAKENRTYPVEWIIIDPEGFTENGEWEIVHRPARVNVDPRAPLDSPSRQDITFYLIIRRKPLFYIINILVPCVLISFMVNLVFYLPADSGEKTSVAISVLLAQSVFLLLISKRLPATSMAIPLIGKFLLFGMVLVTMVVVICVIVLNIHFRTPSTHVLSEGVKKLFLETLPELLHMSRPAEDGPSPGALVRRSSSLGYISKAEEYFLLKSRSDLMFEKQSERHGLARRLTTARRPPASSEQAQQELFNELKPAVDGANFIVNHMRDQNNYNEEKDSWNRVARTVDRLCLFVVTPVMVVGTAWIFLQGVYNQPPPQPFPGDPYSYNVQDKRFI
Sequence of Nicotinic Acetylcholine a1, Bungarotoxin (P11230 24-501, further chain): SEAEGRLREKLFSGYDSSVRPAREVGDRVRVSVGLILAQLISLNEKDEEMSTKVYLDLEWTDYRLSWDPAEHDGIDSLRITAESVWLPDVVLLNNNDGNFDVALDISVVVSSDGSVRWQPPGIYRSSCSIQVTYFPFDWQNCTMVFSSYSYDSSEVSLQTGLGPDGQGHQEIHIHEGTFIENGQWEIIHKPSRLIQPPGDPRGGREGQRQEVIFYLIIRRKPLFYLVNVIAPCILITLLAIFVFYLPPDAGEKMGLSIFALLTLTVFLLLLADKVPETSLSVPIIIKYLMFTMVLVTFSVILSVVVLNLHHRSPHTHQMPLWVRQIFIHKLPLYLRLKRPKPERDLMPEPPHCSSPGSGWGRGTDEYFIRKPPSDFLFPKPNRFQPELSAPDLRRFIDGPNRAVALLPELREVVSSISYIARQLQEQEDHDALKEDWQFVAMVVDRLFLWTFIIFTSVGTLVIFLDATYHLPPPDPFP
Sequence of Adenosine A2A (P29274 whole entry): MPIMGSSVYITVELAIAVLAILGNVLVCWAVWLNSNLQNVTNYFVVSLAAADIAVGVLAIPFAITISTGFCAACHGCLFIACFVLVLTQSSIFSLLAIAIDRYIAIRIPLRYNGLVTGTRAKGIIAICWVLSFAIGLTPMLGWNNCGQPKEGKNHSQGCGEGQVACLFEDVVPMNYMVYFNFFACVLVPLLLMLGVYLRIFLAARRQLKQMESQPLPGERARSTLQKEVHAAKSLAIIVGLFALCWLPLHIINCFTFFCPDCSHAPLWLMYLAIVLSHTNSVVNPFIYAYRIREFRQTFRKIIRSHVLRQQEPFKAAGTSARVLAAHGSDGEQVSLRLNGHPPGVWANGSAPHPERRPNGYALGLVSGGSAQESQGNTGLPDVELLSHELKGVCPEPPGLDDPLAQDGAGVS
Sequence of Muscarinic M3 (P20309 whole entry): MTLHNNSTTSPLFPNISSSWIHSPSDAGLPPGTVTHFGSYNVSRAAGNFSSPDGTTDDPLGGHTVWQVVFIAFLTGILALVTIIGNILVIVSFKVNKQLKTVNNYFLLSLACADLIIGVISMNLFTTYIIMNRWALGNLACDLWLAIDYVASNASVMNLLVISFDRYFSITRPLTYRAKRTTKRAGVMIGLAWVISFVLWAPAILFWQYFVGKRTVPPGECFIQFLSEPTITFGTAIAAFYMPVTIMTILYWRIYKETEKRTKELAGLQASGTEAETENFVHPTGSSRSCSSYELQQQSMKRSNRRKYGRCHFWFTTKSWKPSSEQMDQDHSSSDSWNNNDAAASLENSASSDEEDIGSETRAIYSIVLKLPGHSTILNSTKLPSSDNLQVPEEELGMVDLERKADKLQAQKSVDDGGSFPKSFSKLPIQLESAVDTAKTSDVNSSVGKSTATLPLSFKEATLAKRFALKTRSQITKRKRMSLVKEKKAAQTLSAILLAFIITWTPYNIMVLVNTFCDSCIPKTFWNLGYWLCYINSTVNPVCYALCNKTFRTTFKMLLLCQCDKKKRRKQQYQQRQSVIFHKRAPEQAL
Sequence of Dopamine D2s (P14416 1-414 isoform P14416-2): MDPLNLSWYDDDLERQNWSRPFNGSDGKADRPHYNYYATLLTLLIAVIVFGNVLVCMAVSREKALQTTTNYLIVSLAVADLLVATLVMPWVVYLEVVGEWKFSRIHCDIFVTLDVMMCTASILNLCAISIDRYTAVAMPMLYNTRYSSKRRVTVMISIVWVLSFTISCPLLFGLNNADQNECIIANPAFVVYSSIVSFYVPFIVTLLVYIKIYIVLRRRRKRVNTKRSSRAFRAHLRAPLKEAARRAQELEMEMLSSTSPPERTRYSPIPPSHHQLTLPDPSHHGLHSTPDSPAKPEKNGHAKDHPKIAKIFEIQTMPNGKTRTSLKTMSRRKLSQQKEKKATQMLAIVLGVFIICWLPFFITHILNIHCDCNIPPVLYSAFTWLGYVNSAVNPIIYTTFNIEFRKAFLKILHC
Sequence of Adrenergic β2 (P07550 whole entry): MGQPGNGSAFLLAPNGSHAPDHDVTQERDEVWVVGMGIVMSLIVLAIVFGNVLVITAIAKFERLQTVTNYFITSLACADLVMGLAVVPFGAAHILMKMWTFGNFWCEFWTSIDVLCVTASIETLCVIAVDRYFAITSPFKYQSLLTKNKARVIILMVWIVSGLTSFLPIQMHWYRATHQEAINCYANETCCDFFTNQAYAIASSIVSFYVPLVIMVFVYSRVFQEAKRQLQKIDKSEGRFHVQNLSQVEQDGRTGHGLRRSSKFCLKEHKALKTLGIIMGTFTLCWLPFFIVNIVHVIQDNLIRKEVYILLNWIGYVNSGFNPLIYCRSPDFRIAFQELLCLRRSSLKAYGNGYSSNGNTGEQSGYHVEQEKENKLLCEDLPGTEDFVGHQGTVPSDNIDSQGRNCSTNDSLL

One may read the % Inhibition as the change of the read-out against control, counted positive when it falls. As to `O=C(Nc1nnc(-c2ccc(F)cc2)o1)N1CCc2ccccc2C1` [MBX-4132], the “% Inhibition” value in the assay with Rolipram is recorded as 2%; on Dopamine D2s, 25%; at Potassium Channel (KATP), 10%; on Adenosine A2A it was 43%; on Muscarinic M2, 13%; at Sigma σ1, −4%. For the same molecule, the “% Inhibition” value in the assay with Phorbol Ester was 4%; at Prostanoid EP4 it was 18%; on Opiate μ(OP3, MOP), 74%; in assay [1], 0%; in assay [2], 53%; in assay [3] it was −3%. Further, the “% Inhibition” value was 4% in the assay with Sodium Channel, Site 2; 21% at Adrenergic α1B; −10% at Adrenergic β1; 17% on Histamine, H1; 24% at Adrenergic α1A; 15% in [4]. In addition, the “% Inhibition” value on Cannabinoid CB1 was 14%; at Muscarinic M3, 16%; on Adrenergic β2 it was 36%.

One may read the inhibition as the drop in the measured response relative to a control, in per cent. As to `O=C(Nc1nnc(-c2ccc(F)cc2)o1)c1ccc(Oc2ccccc2)nc1` [MBX-4237], the “% Inhibition” value in the assay on Rolipram is 1%; in the assay with Phorbol Ester it was 2%; in assay [3], 9%; with Sodium Channel, Site 2, −3%; in assay [4], 2%. The inhibition at 10 µM at Dopamine D2s is -3%; against Potassium Channel (KATP), 9%; against Adenosine A2A, 6%; on Muscarinic M2, 17%; against Sigma σ1, 32%; on Prostanoid EP4 it was -22%. Moreover, the inhibition at 10 µM against Opiate μ(OP3, MOP) is 12%; in assay [1] it was -8%; in assay [2], -4%; at Adrenergic α1B, -2%; at Adrenergic β1, -9%; against Histamine, H1 it was 6%. The inhibition at 10 µM on Adrenergic α1A amounted to 6%; against Cannabinoid CB1, 7%; at Muscarinic M3 it was 11%; against Adrenergic β2, 15%.

As to `O=C(Nc1nnc(-c2ccc(F)cc2)o1)c1ccc(OC2CCCCC2)cc1` [MBX-4292], the “% Inhibition” value with Rolipram is −8%; at Dopamine D2s, 1%; on Potassium Channel (KATP) it was 8%; on Adenosine A2A, 11%; at Muscarinic M2, 0%; on Sigma σ1 it was 10%. For the same molecule, the “% Inhibition” value is reported as 2% in the assay on Phorbol Ester; 28% at Prostanoid EP4; 4% at Opiate μ(OP3, MOP); −4% in assay [1]; −7% in [2]; 0% in assay [3]. For the same molecule, the “% Inhibition” value with Sodium Channel, Site 2 was −2%; at Adrenergic α1B it was 3%; on Adrenergic β1, 3%; at Histamine, H1 it was −8%; on Adrenergic α1A, 9%; in assay [4] it was 23%. In addition, the entries for the “% Inhibition” value on Cannabinoid CB1, on Muscarinic M3 and at Adrenergic β2 were 11%, 0% and 6%, respectively.

For `O=C(Nc1nnc(-c2ccc(F)cc2)o1)N1CC=C(C(F)(F)F)CC1` [MBX-4347], the “% Inhibition” value with Rolipram is given as −6%; on Dopamine D2s, −2%; at Potassium Channel (KATP), 2%; on Adenosine A2A it was 3%; at Muscarinic M2, 2%; at Sigma σ1, −2%. The “% Inhibition” value with Phorbol Ester is recorded as 7%; at Prostanoid EP4 it was −4%; at Opiate μ(OP3, MOP), −14%; in assay [1], 2%; in [2], −1%; in assay [3], 5%. Besides, the “% Inhibition” value in the assay with Sodium Channel, Site 2 is recorded as −5%; at Adrenergic α1B, 7%; on Adrenergic β1, 3%; on Histamine, H1 it was 22%; at Adrenergic α1A, −21%; in [4], 16%. The “% Inhibition” value on Cannabinoid CB1 worked out at 0%; on Muscarinic M3 it was 2%; at Adrenergic β2, 8%.

For the origin of these results see patent publication US11505533B2, “Metabolically stable N-acylaminooxadiazoles useful as antibacterial agents” (MICROBIOTIX, INC., priority 2017, dated 2022).
